Earlier results on 35 molecules are cited in US20250339399A1, “SUPRAMOLECULAR SELF-ASSEMBLY SYSTEM” (Beijing Creatron Institute of Pharmaceutical Research Co., …, priority 2022, published 2025).

For the first data set the following is noted: Cannabidiol derivatives, Table 30 (chemical structures); cited from earlier work.
Usually Log P stands for the decadic logarithm of the partition coefficient of the neutral form, usually between octanol and water. Regarding `C=C(C)[C@@H]1CCC(C(=O)O)=C[C@H]1c1c(O)cc(CCCCC)cc1O` [compound 10, ((1R,6R)-2′,6′-dihydroxy-4′-pentyl-6-(prop-1-en-2-yl)-1,4,5,6-tetrahydro-[1,1′-biphenyl]-3-carboxylic acid)], the “Log P” value was 5.52. For the molecule `C=C(C)[C@@H]1CCC(C)=C[C@H]1c1c(O)cc(CCCCC)cc1O` [compound 1, ((1′R,2′R)-5′-methyl-4-pentyl-2′-(prop-1-en-2-yl)-1′,2′,3′,4′-tetrahydro-[1,1′-biphenyl]-2,6-diol)], the log partition coefficient (Log P) is recorded as “Log P = 6.32, H-D:2,H-R = 2”. Regarding `CCCCCc1cc(O)c([C@@H]2CC(C)CC[C@H]2C(C)C)c(O)c1` (stereo partly drawn) [compound 21, (2-((1R,2S)-2-isopropyl-5-methylcyclohexyl)-5-pentylbenzene-1,3-diol)], the “Log P” value is “Log P = 7.08 H-D:2,H-R = 2”. For `CCCCCc1cc(O)c([C@@H]2C=C(CO)CC[C@H]2C(C)C)c(O)c1` [compound 22, ((1′S,2′S)-5′-(hydroxymethyl)-2′-isopropyl-4-pentyl-1′,2′,3′,4′-tetrahydro-[1,1′-biphenyl]-2,6-diol)], the lipophilicity (Log P) is listed as “Log P = 5.39 H-D:3,H-R = 3”. Turning to `CCCCCCC(C)(C)c1cc(OC)c([C@H]2C=C(CO)[C@H]3C[C@@H]2C3(C)C)c(OC)c1` [compound 30], the lipophilicity (Log P) is “Log P = 6.39 H-D:1,H-R = 3”. “(2-[(1R,2R)-2-[2,6- di(acetoxy)-4- pentenyl]-4- methylcyclohex-3- en-1-yl]prop-2-en- 1-yl acetate) [compound 58]”: the lipophilicity (Log P) is “Log P = 5.31 H-D:0,H-R = 3”. `C=C(C)[C@H]1CCC(C)=C[C@@H]1c1c(O)cc(CCCCC)cc1O` [compound 19, ((1′S,2′S)-5′-methyl-4-pentyl-2′-(propanediol-1-en-2-yl)-1′,2′,3′,4′-tetrahydro-[1,1′-biphenyl]-2,6-diol)]: the lipophilicity (Log P) is recorded as “Log P = 6.33 H-D:2,H-R = 2”. As to `C=C(C)[C@H]1CC[C@H](C)C[C@@H]1c1c(O)cc(/C=C/c2ccccc2O)cc1O` [compound 15, (5-((E)-2-hydroxystyryl-2-(1S,2S,5S)-5-methyl-2-(prop-1-en-2-yl)cyclohexyl)phenyl-1,3-diol)], the “Log P” value was “Log P = 6.48 H-D:3,H-R = 3”.

`C=C(C)c1ccc(C)cc1-c1c(O)cc(CCCCC)cc1O` [compound 8, (5′-methyl-4-pentyl-2′-(prop-1-en-2-yl)-[1,1′-biphenyl]-2,6-diol)]: the “Log P” value is recorded as “Log P = 6.85 H-D:2,H-R = 2”. Regarding `C=C(C)[C@@H]1CCC(C)=C[C@H]1c1ccc(CCCCC)cc1O` [compound 48, ((1′R,2′R)-5′-methyl-4-pentyl-2′-(prop-1-en-2-yl)-1′,2′,3′,4′-tetrahydro-[1,1′-biphenyl]-2-ol)], the “Log P” value was “Log P = 6.63 H-D:1, H-R = 1”.

In the case of `C=C(C)[C@@H]1CCC(C)=C[C@H]1c1c(O)cc(CCCC)cc1O` [compound 4, ((1′R,2′R)-4-butyl-5′-methyl-2′-(prop-1-en-2-yl)-1′,2′,3′,4′-tetrahydro-[1,1′-biphenyl]-2,6-diol)], the “Log P” value is listed as “Log P = 5.88 H-D:2,H-R = 2”. Turning to `C=C(C)[C@H]1CC[C@H](C)C[C@@H]1c1c(O)cc(/C=C/c2ccccc2)cc1O` [compound 14, (2-((1S,2S,5S)-5-methyl-2-(prop-1-en-2-yl)cyclohexyl)-5-((E)-styryl)phenyl-1,3-diol)], the “Log P” value was “Log P = 6.78 H-D:2,H-R = 2”. Take `C=C(C)[C@@H]1CCC(C)=C[C@H]1c1c(O)cc(O)cc1CCCCC` [compound 63, (4-[(1R,6R)-3-methyl-6-prop-1-en-2-ylcyclohex-2-en-1-yl]-5-pentylbenzene-1,3-diol)]: the “Log P” value is listed as “Log P = 6.33 H-D:2,H-R = 2”.

Consider `C=C(C)[C@@H]1CCC(C)=C[C@H]1c1c(O)cc(C(C)(C)CCCCCC)cc1O` [compound 24, ((1′R,2′R)-5′-methyl-4-(2-methyloctan-2-yl)-2′-(prop-1-en-2-yl)-1′,2′,3′,4′-tetrahydro-[1,1′-biphenyl]-2,6-diol)], for which the “Log P” value is “Log P = 7.38 H-D:2,H-R = 2”.

Take `C=C(C)[C@@H]1CCC(C(=O)O)=C[C@H]1c1c(O)cc(C(C)(C)CCCCCC)cc1O` [compound 25, ((1R,6R)-2′,6′-dihydroxy-4′-(2-methyloctan-2-yl)-6-(prop-1-en-2-yl)-1,4,5,6-tetrahydro-[1,1′-biphenyl]-3-carboxylic acid)]: the “Log P” value was “Log P = 6.99 H-D:3,H-R = 4”. On to `C=C(C)[C@@H]1CCC(C)=C[C@H]1c1c(O)cc(CCC)c(C(=O)O)c1O` [compound 6, ((1′R,2′R)-2,6-dihydroxy-5′-methyl-2′-(prop-1-en-2-yl)-4-propyl-1′,2′,3′,4′-tetrahydro-[1,1′-biphenyl]-3-carboxylic acid)], for which the “Log P” value is on record as 5.74. Consider `C=C(C)[C@@H]1CCC(CO)=C[C@H]1c1c(O)cc(C(C)(C)CCCCCC)cc1O` [compound 26, ((1′R,2′R)-5′-(hydroxymethyl)-4-(2-methyloctan-2-yl)-2′-(prop-1-en-2-yl)-1′,2′,3′,4′-tetrahydro-[1,1′-biphenyl]-2,6-diol)], for which the log partition coefficient (Log P) is recorded as “Log P = 6.52 H-D:3,H-R = 3”. As for `C=C(C)[C@@H]1CCC(C)=C[C@H]1c1c(O)cc(C)cc1O` [compound 2, ((1′R,2′R)-4,5′-dimethyl-2′-(prop-1-en-2-yl)-1′,2′,3′,4′-tetrahydro-[1,1′-biphenyl]-2,6-diol)], the “Log P” value is given as “Log P = 4.55, H-D:2,H-R = 2”. `C=C(C)[C@@H]1CCC(C)=C[C@H]1C1=C(O)C(=O)C(CCCCC)=CC1=O` [compound 59, (3-hydroxy-2-[(1R,6R)-3-methyl-6-prop-1-en-2-ylcyclohex-2-en-1-yl]-5-pentylcyclohex-2,5-diene-1,4-dione)]: the “Log P” value was “Log P = 5.23 H-D:1,H-R = 3”. Turning to `C=C(C)[C@@H]1CCC(C)=C[C@H]1c1c(O)cc(CCCCC)cc1OC` [compound 7, ((1′R,2′R)-6-methoxy-5′-methyl-4-pentyl-2′-(prop-1-en-2-yl)-1′,2′,3′,4′-tetrahydro-[1,1′-biphenyl]-2-ol)], the “Log P” value is “Log P = 6.47 H-D:1,H-R = 2”. As for `C=C(C)[C@@H]1CC(OC(C)=O)C(C)=C[C@H]1c1c(OC(C)=O)cc(CCCCC)cc1OC(C)=O` (stereo partly drawn) [compound 57, (3-(acetyloxy)-2-[(1R,6R)-4-(acetyloxy)-3-methyl-6-(prop-1-en-2-yl)cyclohex-2-en-1-yl]-5-pentylphenyl acetate)], the “Log P” value is recorded as “Log P = 5.36 H-D:0,H-R = 3”. Take `CCCCCc1cc(O)c2c(c1)OC(C)(C)[C@@H]1CCC(C)=C[C@@H]21` [compound 66, Tetrahydrocannabinol]: the “Log P” value is given as “Log P = 5.73 H-D:1,H-R = 2”.

As for `C=C(C)[C@@H]1CCC(C)=C[C@H]1c1c(O)cc(CCC)cc1O` [compound 3, ((1′R,2′R)-5′-methyl-2′-(prop-1-en-2-yl)-4-propyl-1′,2′,3′,4′-tetrahydro-[1,1′-biphenyl]-2,6-diol)], the “Log P” value was “Log P = 5.44 H-D:2,H-R = 2”. With `C=C(C)[C@@H]1CCC(C)=C[C@H]1c1c(O)cc(CCCCC)cc1OCCCN` [compound 51, ((1′R,2′R)-6-(3-aminopropoxy)-5′-methyl-4-pentyl-2′-(prop-1-en-2-yl)-1′,2′,3′,4′-tetrahydro-[1,1′-biphenyl]-2-ol)], the “Log P” value was “Log P = 5.73 H-D:2,H-R = 3”. Take `C=C(C)[C@@H]1CCC(C)=C[C@H]1C1=C(O)C(=O)C(CCCCC)=C(NCc2ccccc2)C1=O` [compound 61, (2,5-cyclohexadiene-1,4-dione, 2-hydroxy-3-((1R,6R)-3-methyl-6-(1-methylvinyl)-2-cyclohexen-1-yl)-6-pentyl-5-((benzyl)amino))]: the “Log P” value was “Log P = 6.23 H-D:2,H-R = 4”. Take `C=C(C)[C@H]1CCC(C)=C[C@@H]1c1c(O)cc(O)c(C(=O)CCc2ccccc2)c1O` [compound 18, (3-phenyl-1-((1′S,2′S)-2,4,6-trihydroxy-5′-methyl-2′-(prop-1-en-2-yl)-1′,2′,3′,4′-tetrahydro-[1,1′-biphenyl]-3-yl)prop-1-one)]: the “Log P” value is “Log P = 6.87 H-D:3,H-R = 4”. For the molecule `CCCCCCC(C)(C)c1cc(O)c([C@@H]2CC(C)CC[C@H]2C(C)C)c(O)c1` (stereo partly drawn) [compound 29, (2-((1R,2S)-2-isopropyl-5-methylcyclohexyl)-5-(2-methyloctan-2-yl)benzene-1,3-diol)], the “Log P” value was “Log P = 8.55 H-D:2,H-R = 2”. With `C=C(C)[C@H]1CC[C@H](C)C[C@@H]1c1c(O)cc(-c2cc3ccccc3o2)cc1O` [compound 16], the log partition coefficient (Log P) is recorded as “Log P = 6.17 H-D:2,H-R = 2”. `CCCCCCC(C)(C)c1cc(OC)c(C2C=C(CO)[C@@H]3C[C@H]2C3(C)C)c(OC)c1` (stereo partly shown) [compound 31]: the “Log P” value is listed as “Log P = 6.39 H-D:1,H-R = 3”.

The same data set, now with this note: Cannabidiol derivatives; pH 7.4; cited from earlier work.
For the molecule `C=C(C)[C@@H]1CCC(C(=O)O)=C[C@H]1c1c(O)cc(CCCCC)cc1O` [compound 10, ((1R,6R)-2′,6′-dihydroxy-4′-pentyl-6-(prop-1-en-2-yl)-1,4,5,6-tetrahydro-[1,1′-biphenyl]-3-carboxylic acid)], the “Log D7.4” value is 2.40. `C=C(C)[C@@H]1CCC(C)=C[C@H]1c1c(O)cc(CCCCC)c(C(=O)O)c1O` [compound 5, ((1′R,2′R)-2,6-dihydroxy-5′-methyl-4-pentyl-2′-(prop-1-en-2-yl)-1′,2′,3′,4′-tetrahydro-[1,1′-biphenyl]-3-carboxylic acid)]: the “Log D7.4” value is reported as 3.15. `C=C(C)[C@@H]1CCC(C)=C[C@H]1c1c(O)cc(CCC)c(C(=O)O)c1O` [compound 6, ((1′R,2′R)-2,6-dihydroxy-5′-methyl-2′-(prop-1-en-2-yl)-4-propyl-1′,2′,3′,4′-tetrahydro-[1,1′-biphenyl]-3-carboxylic acid)]: the “Log D7.4” value is 2.26.

The data set is the same for the next values; noted with them: cited from earlier work.
On to `CCCCCc1cc(O)c(C/C=C(\C)CCC=C(C)C)c(O)c1` [compound 64, (2-[(2E)-3,7-dimethylocta-2,6-dienyl]-5-pentylbenzene-1,3-diol)], for which the “Log P” value is “Log P = 7.05 H-D:2,H-R = 2”.

The data set is the same for the next values; noted with them: prost derivatives, Table 31 (relevant information); cited from earlier work.
Consider `CCCCC(C)(O)C/C=C/[C@H]1[C@H](O)CC(=O)[C@@H]1CCCCCCC(=O)OC` (mixture of isomers) [Misoprostol, misoprostol], for which the log partition coefficient (Log P) was “Log P:3.86 D-H: 2 R-H:4”.

As for `O=C1C[C@@H]2[C@@H](CC[C@@H](O)CCc3ccccc3)[C@H](O)C[C@@H]2O1` [Latanoprost lactone diol, latanoprost lactone diol], the “Log P” value was “Log P: 1.87 D-H: 2 R-H: 3”.

Consider `CCCCC(C)(C)[C@H](O)/C=C/[C@H]1[C@H](O)CC(=O)[C@@H]1CCCC/C=C/C(=O)OC` [Gemeprost, gemeprost], for which the lipophilicity (Log P) is “Log P:4.71 D-H: 2 R-H:4”. Take `CC(C)OC(=O)CCC/C=C\C[C@@H]1[C@@H](/C=C/[C@@H](O)COc2cccc(C(F)(F)F)c2)[C@H](O)C[C@@H]1O` [Travoprost, travoprost]: the “Log P” value was “Log P:3.84 D-H: 3 R-H: 5”.
